Assay results taken from US10882838B2, “Cannabinergic compounds and uses thereof” (Northeastern University, priority 2012, dated 2021).
Read-outs that look alike come from different tables or passages of the source.

Tests used:
[1] = target: hCB2 receptor (Homo sapiens (Human), UniProt P34972); experiment: hCB2 competition-equilibrium binding with [3H]CP-55,940, membranes of HEK293 cells expressing hCB2
Procedure: (§1) HEK293 cells expressing hCB1 or hCB2 or mCB2 receptor are used for membrane preparations according to Abadji et al. The resulting pellet is resuspended in 10 mM Tris-chloride, pH 7.4, with 5 mM MgCl2 and 2 mM EDTA (TME), rapidly frozen in liquid nitrogen and stored at −80° C. for no longer than two months. Protein content is assayed by using the Bio-Rad protein assay according to the manufacturer's protocol.
(§2) All the cannabinoids discussed in this invention are tested for their ability to bind to CB1 and CB2 receptors using membranes from rat brain or HEK293 cells expressing either mCB2 or hCB2, respectively via competition-equilibrium binding using [^3H]CP-55,940. Results are analyzed using nonlinear regression to determine ligand IC50 (Prism by GraphPad Software, Inc.), and Ki values are calculated from the IC50. IC50 and Ki values are determined from at least three independent experiments.

[2] = target: CB1 receptor (Rattus norvegicus (Rat), UniProt P20272); experiment: rCB1 competition-equilibrium binding with [3H]CP-55,940, rat brain membranes
Procedure: Frozen rat brains (CB1 source) are obtained from Pel-Freeze Biologicals (Rogers, Ak.) and stored at −80° C. until use. Membranes are prepared according to the method described by Dodd et al. and used in our laboratory as reported.
as §2

[3] = target: mCB2 receptor (Mus musculus (Mouse), UniProt P47936); experiment: mCB2 competition-equilibrium binding with [3H]CP-55,940, membranes of HEK293 cells expressing mCB2
Procedure: as §1, §2

[4] = HEK293 cells expressing hCB2, [3H]CP-55,940, read-out: hCB2 Ki
[5] = rat brain membranes, [3H]CP-55,940, read-out: rCB1 Ki
[6] = HEK293 cells expressing mCB2, [3H]CP-55,940, read-out: mCB2 Ki

SMILES: CC1=CC[C@H]2[C@@H](C1)c1c(O)cc(C(C)(C)C(=O)O)cc1OC2(C)C [Compound 1.1, 2-((6aS,10aR)-6a,7,10,10a-tetrahydro-1-hydroxy-6,6,9-trimethyl-6H-benzo[c]chromen-3-yl)-2-methylpropanoic Acid]
- Ki [1]: > 10000 nM
- Ki [2]: > 10000 nM
- Ki [3]: > 10000 nM

SMILES: CCCCOC(=O)C(C)(C)c1cc(O)c2c(c1)OC(C)(C)[C@H]1CC=C(C)C[C@@H]21 [Compound 1.4, Butyl-2-((6aS, 10aR)-6a, 7, 10, 10a-tetrahydro-1-hydroxy-6,6,9-trimethyl-6H-benzo[c]chromen-3-yl)-2-methylpropanoate]
- Ki [1, 4]: 0.7 nM
- Ki [2, 5]: 0.6 nM
- Ki [3, 6]: 0.6 nM

SMILES: CC1=CC[C@H]2[C@@H](C1)c1c(O)cc(C(C)(C)C(=O)OCCCCCBr)cc1OC2(C)C [Compound 1.5, 5-bromopentyl-2-((6aS,10aR)-6a,7,10,10a-tetrahydro-1-hydroxy-6,6,9-trimethyl-6H-benzo[c]chromen-3-yl)-2-methylpropanoate]
- Ki [1, 4]: 0.6 nM
- Ki [2, 5]: 1.2 nM
- Ki [3, 6]: 0.5 nM

SMILES: CC1=CC[C@@H]2[C@@H](C1)c1c(O)cc(C(C)(C)C(=O)OCCCBr)cc1OC2(C)C [Compound 1.7, 3-bromopropyl-2-((6aR, 10aR)-6a, 7, 10, 10a-tetrahydro-1-hydroxy-6,6,9-trimethyl-6H-benzo[c]chromen-3-yl)-2-methylpropanoate]
- Ki [1, 4]: 0.6 nM
- Ki [2, 5]: 0.8 nM
- Ki [3, 6]: 1.1 nM

SMILES: CC1=CC[C@@H]2[C@@H](C1)c1c(O)cc(C(C)(C)C(=O)OCCCC#N)cc1OC2(C)C [Compound 1.8, 3-cyanopropyl-2-((6aR,10aR)-6a,7,10,10a-tetrahydro-1-hydroxy-6,6,9-trimethyl-6H-benzo[c]chromen-3-yl)-2-methylpropanoate]
- Ki [1, 4]: 1.4 nM
- Ki [2, 5]: 0.5 nM
- Ki [3, 6]: 0.7 nM

SMILES: CC1=CC[C@@H]2[C@@H](C1)c1c(O)cc(C(C)(C)C(=O)OCCCN=[N+]=[N-])cc1OC2(C)C [Compound 1.9, 3-azidopropyl-2-((6aR,10aR)-6a,7,10,10a-tetrahydro-1-hydroxy-6,6,9-trimethyl-6H-benzo[c]chromen-3-yl)-2-methylpropanoate]
- Ki [1, 4]: 0.8 nM
- Ki [2, 5]: 1 nM
- Ki [3, 6]: 0.7 nM

SMILES: CC1=CC[C@@H]2[C@@H](C1)c1c(O)cc(C(C)C(=O)O)cc1OC2(C)C (stereo partly drawn) [Compound 1.11, 2-((6aR,10aR)-1-hydroxy-6,6,9-trimethyl-6a,7,10,10a-tetrahydro-6H-benzo[c]chromen-3-yl)propanoic acid]
- Ki [1, 4]: > 10000 nM
- Ki [2, 5]: > 10000 nM
- Ki [3, 6]: > 10000 nM

SMILES: CC1=CC[C@@H]2[C@@H](C1)c1c(O)cc([C@@H](C)C(=O)O)cc1OC2(C)C [Compound 1.13, (R)-2-((6aR,10aR)-1-hydroxy-6,6,9-trimethyl-6a,7,10,10a-tetrahydro-6H-benzo[c]chromen-3-yl)propanoic Acid]
- Ki [1, 4]: > 10000 nM
- Ki [2, 5]: > 10000 nM
- Ki [3, 6]: > 10000 nM

SMILES: CC1=CC[C@@H]2[C@@H](C1)c1c(O)cc([C@H](C)C(=O)O)cc1OC2(C)C [Compound 1.15, (S)-2-((6aR,10aR)-1-hydroxy-6,6,9-trimethyl-6a,7,10,10a-tetrahydro-6H-benzo[c]chromen-3-yl)propanoic Acid]
- Ki [1, 4]: > 10000 nM
- Ki [2, 5]: > 10000 nM
- Ki [3, 6]: > 10000 nM

SMILES: CC1=CC[C@@H]2[C@@H](C1)c1c(O)cc(C3(C(=O)O)CCC3)cc1OC2(C)C [Compound 1.17, 1-((6aR,10aR)-1-hydroxy-6,6,9-trimethyl-6a,7,10,10a-tetrahydro-6H-benzo[c]chromen-3-yl)cyclobutanecarboxylic Acid]
- Ki [1, 4]: > 10000 nM
- Ki [2, 5]: > 10000 nM
- Ki [3, 6]: > 10000 nM

SMILES: CC1=CC[C@@H]2[C@@H](C1)c1c(O)cc(C3(C(=O)OCCCCN=[N+]=[N-])CCC3)cc1OC2(C)C [Compound 1.21, 4-azidobutyl 1-((6aR,10aR)-1-hydroxy-6,6,9-trimethyl-6a,7,10,10a-tetrahydro-6H-benzo[c]chromen-3-yl)cyclo Butanecarboxylate]
- Ki [1, 4]: 2.7 nM
- Ki [2, 5]: 0.9 nM
- Ki [3, 6]: 1.9 nM

SMILES: CCCCCCC(O)(CC(=O)O)c1cc(O)c2c(c1)OC(C)(C)[C@@H]1CC=C(C)C[C@@H]21 (stereo partly drawn) [Compound 1.22, 3-hydroxy-3-((6aR,10aR)-1-hydroxy-6,6,9-trimethyl-6a,7,10,10a-tetrahydro-6H-benzo[c]chromen-3-yl)nonanoic Acid]
- Ki [1, 4]: 1000 nM
- Ki [2, 5]: 600 nM
- Ki [3, 6]: 1000 nM

SMILES: CCCCCCC1(c2cc(O)c3c(c2)OC(C)(C)[C@@H]2CC=C(C)C[C@@H]32)CC(=O)O1 (stereo partly drawn) [Compound 1.23, 4-hexyl-4-((6aR,10aR)-1-hydroxy-6,6,9-trimethyl-6a,7,10,10a-tetrahydro-6H-benzo[c]chromen-3-yl)oxetan-2-one]
- Ki [1]: 55.5 nM
- Ki [2]: 15.9 nM
- Ki [3]: 40.7 nM

SMILES: CC1=CC[C@@H]2[C@@H](C1)c1c(O)cc(CC(=O)O)cc1OC2(C)C [Compound 1.26, 2-((6aR,10aR)-6a,7,10,10a-tetrahydro-1-hydroxy-6,6,9-trimethyl-6H-benzo[c]chromen-3-yl)acetic Acid]
- Ki [1, 4]: > 10000 nM
- Ki [2, 5]: > 10000 nM
- Ki [3, 6]: > 10000 nM

SMILES: CCCSC(=O)C(C)(C)c1cc(O)c2c(c1)OC(C)(C)[C@@H]1CC=C(C)C[C@@H]21 [Compound 1.30, S-propyl-2-((6aR,10aR)-6a,7,10,10a-tetrahydro-1-hydroxy-6,6,9-trimethyl-6H-benzo[c]chromen-3-yl)-2-methylpropanethioate]
- Ki [1, 4]: 0.7 nM
- Ki [2, 5]: 0.5 nM

SMILES: CCCCCNC(=O)C(C)(C)c1cc(O)c2c(c1)OC(C)(C)[C@@H]1CC=C(C)C[C@@H]21 [Compound 1.31, 2-((6aR,10aR)-6a,7,10,10a-tetrahydro-1-hydroxy-6,6,9-trimethyl-6H-benzo[c]chromen-3-yl)-2-methyl-N-pentylpropanamide]
- Ki [1, 4]: 2.8 nM
- Ki [2, 5]: 6.3 nM
- Ki [3, 6]: 9.2 nM

SMILES: CC1=CC[C@@H]2[C@@H](C1)c1c(O)cc(C(C)(C)CO)cc1OC2(C)C [Compound 1.32, (6aR,10 aR)-3-(1-hydroxy-2-methylpropan-2-yl)-6,6,9-trimethyl-6a,7,10,10a-tetrahydro-6H-benzo[c]chromen-1-ol]
- Ki [2, 5]: 447 nM

SMILES: CCCCC(=O)OCC(C)(C)c1cc(O)c2c(c1)OC(C)(C)[C@@H]1CC=C(C)C[C@@H]21 [Compound 1.33, 2-((6aR, 10aR)-6a,7,10,10a-tetrahydro-1-hydroxy-6,6,9-trimethyl-6H-benzo[c]chromen-3-yl)-2-methyl propylpentanoate]
- Ki [1, 4]: 1 nM
- Ki [2, 5]: 0.5 nM

SMILES: CCOC(=O)C(C)(C)c1cc(O)c2c(c1)OC(C)(C)[C@@H]1CC=C(C)C[C@@H]21 [Compound 1.35, Ethyl-2-((6aR,10aR)-6a,7,10,10a-tetrahydro-1-hydroxy-6,6,9-trimethyl-6H-benzo[c]chromen-3-yl)-2-methylpropanoate]
- Ki [1, 4]: 1.5 nM
- Ki [2, 5]: 2.7 nM
- Ki [3, 6]: 0.5 nM

SMILES: CC1=CC[C@@H]2[C@@H](C1)c1c(O)cc(C(C)(C)C(=O)OCCBr)cc1OC2(C)C [Compound 1.36, 2-bromoethyl-2-((6aR,10aR)-6a,7,10,10a-tetrahydro-1-hydroxy-6,6,9-trimethyl-6H-benzo [c]chromen-3-yl)-2-methylpropanoate]
- Ki [1, 4]: 7.7 nM
- Ki [2, 5]: 2.9 nM
- Ki [3, 6]: 3.2 nM

SMILES: CC(C)(C(=O)O)c1cc(O)c2c(c1)OC(C)(C)[C@@H]1CC=C(CO)C[C@@H]21 [Compound 2.1, 2-((6aR, 10aR)-6a,7,10,10a-tetrahydro-1-hydroxy-9-(hydroxymethyl)-6,6-dimethyl-6H-benzo[c]chromen-3-yl)-2-methylpropanoic Acid]
- Ki [1, 4]: > 10000 nM
- Ki [2, 5]: > 10000 nM
- Ki [3, 6]: > 10000 nM

SMILES: CC1(C)Oc2cc(CC(=O)O)cc(O)c2[C@@H]2CC(=O)CC[C@H]21 [Compound 3.1, 2-((6aR,10aR)-6a,7,8,9,10,10a-hexahydro-1-hydroxy-6,6-dimethyl-9-oxo-6H-benzo[c]chromen-3-yl)acetic acid]
- Ki [1, 4]: > 10000 nM
- Ki [2, 5]: > 10000 nM
- Ki [3, 6]: > 10000 nM

SMILES: CCCCOC(=O)Cc1cc(O)c2c(c1)OC(C)(C)[C@@H]1CCC(=O)C[C@@H]21 [Compound 3.2, Butyl-2-((6aR,10aR)-6a,7,8,9,10,10a-hexahydro-1-hydroxy-6,6-dimethyl-9-oxo-6H-benzo[c]chromen-3-yl)acetate]
- Ki [1, 4]: 1000 nM
- Ki [2, 5]: 1000 nM
- Ki [3, 6]: 1000 nM

SMILES: CCCCCCC(C)(C)c1cc(O)c2c(c1)OC(C)(C)[C@@H]1CCOC(=O)C[C@@H]21 [Compound 3.11, (5 aR,11bR)-11-hydroxy-6,6-dimethyl-9-(2-methyloctan-2-yl)-4,5,5a,6-tetrahydro-1H-oxepino[4,5-c]chromen-2(11bH)-one]
- Ki [2, 5]: 99 nM
- Ki [3, 6]: 802 nM

SMILES: CCOC(=O)C(C)(C)c1cc(O)c(-c2cccc(C#N)c2)c(O)c1 [Compound 4.2, Ethyl 2-(3′-cyano-2,6-dihydroxybiphenyl-4-yl)-2-methylpropanoate]
- Ki [1, 4]: 94.8 nM
- Ki [2, 5]: 3660 nM

SMILES: CCOC(=O)C(C)(C)c1cc(O)c(-c2cc(Cl)cc(Cl)c2)c(OC)c1 [Compound 4.7, ethyl 2-(3′,5′-dichloro-2-hydroxy-6-methoxybiphenyl-4-yl)-2-methylpropanoate]
- Ki [1, 4]: 700 nM
- Ki [2, 5]: 1000 nM

SMILES: CCOC(=O)C(C)(C)c1cc(O)c(-c2cc(Cl)cc(Cl)c2)c(O)c1 [Compound 4.8, Ethyl 2-(3′,5′-dichloro-2,6-dihydroxybiphenyl-4-yl)-2-methylpropanoate]
- Ki [1, 4]: 20.9 nM
